This note sets out measurements from article PMC10114980, “Triple targeting of mutant EGFR^L858R/T790M, COX-2, and 15-LOX: design and synthesis of novel quinazolinone tethered phenyl urea derivatives for anti-inflammatory and anticancer evaluation” (Journal of Enzyme Inhibition and Medicinal Chemistry, 2023).

The test system of experiment [1] is HCT-116. Put plainly: NCI single dose screen, HCT-116. The experiment is classed as cell-based. Particulars: Homo sapiens; HCT-116, colon cancer; single dose 10^−5 M; read-out: growth inhibition percentage. The procedure: (§1) Screening of the anticancer activity of the newly synthesised compounds (6a, 6c, 6d, 6e, 6j, 6l, 6m, 6n, 6o, and 6p) was performed by the US National Cancer Institute (NCI) using 60 different human tumour cell lines in accordance with standard procedures formerly reported.
(§2) In vitro anticancer screening was carried out for the selected compounds at a single dose (10^−5 M) against 60 different human tumour cell lines of nine different cancer cell types: leukaemia, lung, colon, CNS, melanoma, ovarian, renal, prostate, and breast cancers.

The test system of experiment [2] is LOX IMVI. Kind of experiment: NCI single dose screen, LOX IMVI. The experiment is classed as cell-based. The conditions noted are these: Homo sapiens, melanoma, single dose 10^−5 M, read-out: growth inhibition percentage. As to the method:
as §1, §2

Experiment [3] relates to SK-MEL-2. Kind of experiment: NCI single dose screen, SK-MEL-2. The experiment is classed as cell-based. Particulars: Homo sapiens; SK-MEL-2, melanoma; single dose 10^−5 M; read-out: growth inhibition percentage. The procedure:
as §1, §2

Experiment [4] has as its system UO-31. Put plainly: NCI single dose screen, UO-31. It counts as cell-based. The conditions noted are these: Homo sapiens; UO-31, renal cancer; single dose 10^−5 M; read-out: growth inhibition percentage. As to the method: as §1, §2
Experiment [5] deals with T-47D. Kind of experiment: NCI single dose screen, T-47D. The experiment is classed as cell-based. The conditions noted are these: Homo sapiens, T47D, breast cancer, single dose 10^−5 M, read-out: growth inhibition percentage. The procedure:
as §1, §2

The subject of experiment [6] is 60 NCI cancer cell lines panel. Put plainly: NCI 60 cell lines panel single dose screen, whole panel. The conditions noted are these: single dose 10^−5 M; for inhibition at 10 µM: Homo sapiens, 60 cell, read-out: growth inhibition percentages range over the sensitive cell lines; for number of cell lines with anticancer activity out of the 60 NCI cell lines: GI higher than 10%. The experiment is classed as cell-based, human. As to the method:
as §1, §2

Broadly, the inhibition is the drop in the measured response relative to a control, in per cent.

`CN1c2ccccc2C(=O)N(NC(=O)Nc2ccccc2)C1c1ccc([N+](=O)[O-])cc1` (stereo not drawn) [Compound 6e, 1-(1-Methyl-2-(4-nitrophenyl)-4-oxo-1,4-dihydroquinazolin-3(2H)-yl)-3-phenylurea]: the inhibition at 10 µM in experiment [1] was 53.1%; in experiment [2], below 10%; in experiment [3], below 10%; in experiment [4] it was 14.4%; in experiment [5] it was below 10%.

As to `CN1c2ccccc2C(=O)N(NC(=O)Nc2ccc(F)cc2)C1c1ccccc1` (stereo not drawn) [Compound 6m, 1-(4-Fluorophenyl)-3-(1-methyl-4-oxo-2-phenyl-1,4-dihydroquinazolin-3(2H)-yl)urea], the inhibition at 10 µM in experiment [6] was 10.5 to 40.1%; in experiment [1], below 10%; in experiment [2], 21.9%; in experiment [3], below 10%; in experiment [4], 40.1%; in experiment [5] it was 13.9%. For the same molecule, in experiment [6], the “number of cell lines with anticancer activity out of the 60 NCI cell lines” value (“number of cell lines” below) was 19.

For the molecule `CN1c2ccccc2C(=O)N(NC(=O)Nc2ccc(F)cc2)C1c1ccc(F)cc1` (stereo not drawn) [Compound 6n, 1-(4-Fluorophenyl)-3-(2–(4-fluorophenyl)-1-methyl-4-oxo-1,4-dihydroquinazolin-3(2H)-yl)urea], the inhibition at 10 µM is 10.1 to 57.1% in experiment [6]; 22.9% in experiment [1]; 31.6% in experiment [2]; 12.5% in experiment [3]; 57.1% in experiment [4]; 11.7% in experiment [5]. Further, the “number of cell lines” value in experiment [6] came to 32.

For the molecule `CN1c2ccccc2C(=O)N(NC(=O)Nc2ccccc2)C1c1ccccc1` (stereo not drawn) [Compound 6c, 1-(1-Methyl-4-oxo-2-phenyl-1,4-dihydroquinazolin-3(2H)-yl)-3-phenylurea], the inhibition at 10 µM in experiment [1] is 16.8%; in experiment [2] it was below 10%; in experiment [3], below 10%; in experiment [4], 19.5%; in experiment [5] it was below 10%.

As to `COc1ccc(NC(=O)NN2C(=O)c3ccccc3N(C)C2c2ccc(OC)cc2)cc1` (stereo not drawn) [Compound 6j, 1-(4-Methoxyphenyl)-3-(2-(4-methoxyphenyl)-1-methyl-4-oxo-1,4-dihydroquinazolin-3(2H)-yl)urea], the inhibition at 10 µM in experiment [1] was 40.6%; in experiment [2] it was below 10%; in experiment [3], below 10%; in experiment [4], 24.6%; in experiment [5], below 10%.

As to `CC1N(NC(=O)Nc2ccc(F)cc2)C(=O)c2ccccc2N1C` (stereo not drawn) [Compound 6l, 1–(1,2-Dimethyl-4-oxo-1,4-dihydroquinazolin-3(2H)-yl)-3-(4-fluorophenyl)urea], the inhibition at 10 µM in experiment [1], in experiment [2], in experiment [3], in experiment [4] and in experiment [5] was below 10% in each case.

For `COc1ccc(C2N(NC(=O)Nc3ccc(F)cc3)C(=O)c3ccccc3N2C)cc1` (stereo not drawn) [Compound 6p, 1-(4-Fluorophenyl)-3-(2–(4-methoxyphenyl)-1-methyl-4-oxo-1,4-dihydroquinazolin-3(2H)-yl)urea], the inhibition at 10 µM in experiment [1] was 14%; in experiment [2], 18.1%; in experiment [3] it was below 10%; in experiment [4], 42.6%; in experiment [5], below 10%.

With `CN1CN(NC(=O)Nc2ccccc2)C(=O)c2ccccc21` [Compound 6a, 1-(1-Methyl-4-oxo-1,4-dihydroquinazolin-3(2H)-yl)-3-phenylurea], the “anticancer activity in the NCI 60 panel (in words)” value in experiment [6] is given as “did not show any anticancer activities”. The inhibition at 10 µM in experiment [1], in experiment [2], in experiment [3], in experiment [4] and in experiment [5] was below 10% throughout.

Turning to `CN1c2ccccc2C(=O)N(NC(=O)Nc2ccccc2)C1c1ccc(F)cc1` (stereo not drawn) [Compound 6d, 1-(2-(4-Fluorophenyl)-1-methyl-4-oxo-1,4-dihydroquinazolin-3(2H)-yl)-3-phenylurea], the inhibition at 10 µM in experiment [1] is below 10%; in experiment [2], below 10%; in experiment [3], below 10%; in experiment [4], 36.2%; in experiment [5], below 10%.

Regarding `CN1c2ccccc2C(=O)N(NC(=O)Nc2ccc(F)cc2)C1c1ccc([N+](=O)[O-])cc1` (stereo not drawn) [Compound 6o, 1-(4-Fluorophenyl)-3–(1-methyl-2-(4-nitrophenyl)-4-oxo-1,4-dihydroquinazolin-3(2H)-yl)urea], the inhibition at 10 µM in experiment [6] was 10.7 to 41.3%; in experiment [1], 21.6%; in experiment [2] it was 29.5%; in experiment [3] it was below 10%; in experiment [4] it was 41.3%; in experiment [5], below 10%. The “number of cell lines” value in experiment [6] was 21.
